Values quoted from earlier work, collected in PubChem BioAssay AID1259409 (Chemical Carcinogenesis Research Information System (CCRIS), 2018).

Test system: rodent chemically induced tumor inhibition, incidence and multiplicity
Experiment: CCRIS tumor inhibitor studies
Conditions: Species: RAT, Promoter: NONE USED

Structure (SMILES)	tumour outcome (control, treated, inhibition, significance) (Carcinogen: L-AZASERINE, 115-02-6, Dose [Inhibitor]: 1 MMOL/KG DIET DAILY FOR 84 D FOLLOWED BY 0.5 MMOL/KG DIET FOR 276 D STARTING 1 WK AFTER COMPLETION OF CARCINOGEN TREATM, Route [Inhibitor]: ORAL, Strain/Sex: WISTAR-LEWIS/FEMALE, Target Tissue: Type of Lesion: PANCREAS: ADENOMA, Dose [Carcinogen]: 10 MG/KG BW 1/WK FOR 15 WK)	tumour outcome (control, treated, inhibition, significance) (Carcinogen: L-AZASERINE, 115-02-6, Dose [Inhibitor]: 1 MMOL/KG DIET DAILY FOR 84 D FOLLOWED BY 0.5 MMOL/KG DIET FOR 276 D STARTING 1 WK AFTER COMPLETION OF CARCINOGEN TREATM, Route [Inhibitor]: ORAL, Strain/Sex: WISTAR-LEWIS/FEMALE, Target Tissue: Type of Lesion: PANCREAS: CARCINOMA IN SITU, Dose [Carcinogen]: 10 MG/KG BW 1/WK FOR 15 WK)	tumour outcome (control, treated, inhibition, significance) (Carcinogen: L-AZASERINE, 115-02-6, Dose [Inhibitor]: 1 MMOL/KG DIET DAILY FOR 84 D FOLLOWED BY 0.5 MMOL/KG DIET FOR 276 D STARTING 1 WK AFTER COMPLETION OF CARCINOGEN TREATM, Route [Inhibitor]: ORAL, Strain/Sex: WISTAR-LEWIS/FEMALE, Target Tissue: Type of Lesion: PANCREAS: CARCINOMA, Dose [Carcinogen]: 10 MG/KG BW 1/WK FOR 15 WK)	tumour outcome (control, treated, inhibition, significance) (Carcinogen: L-AZASERINE, 115-02-6, Dose [Inhibitor]: 1 MMOL/KG DIET DAILY FOR 84 D FOLLOWED BY 0.5 MMOL/KG DIET FOR 276 D STARTING 1 WK AFTER COMPLETION OF CARCINOGEN TREATM, Route [Inhibitor]: ORAL, Strain/Sex: WISTAR-LEWIS/FEMALE, Target Tissue: Type of Lesion: PANCREAS: NEOPLASM, Dose [Carcinogen]: 10 MG/KG BW 1/WK FOR 15 WK)	tumour outcome (control, treated, inhibition, significance) (Carcinogen: L-AZASERINE, 115-02-6, Dose [Inhibitor]: 1 MMOL/KG DIET DAILY FOR 84 D FOLLOWED BY 0.5 MMOL/KG DIET FOR 276 D STARTING 1 WK AFTER COMPLETION OF CARCINOGEN TREATM, Route [Inhibitor]: ORAL, Strain/Sex: WISTAR-LEWIS/MALE, Target Tissue: Type of Lesion: PANCREAS: ADENOMA, Dose [Carcinogen]: 10 MG/KG BW 1/WK FOR 15 WK)	tumour outcome (control, treated, inhibition, significance) (Carcinogen: L-AZASERINE, 115-02-6, Dose [Inhibitor]: 1 MMOL/KG DIET DAILY FOR 84 D FOLLOWED BY 0.5 MMOL/KG DIET FOR 276 D STARTING 1 WK AFTER COMPLETION OF CARCINOGEN TREATM, Route [Inhibitor]: ORAL, Strain/Sex: WISTAR-LEWIS/MALE, Target Tissue: Type of Lesion: PANCREAS: CARCINOMA IN SITU, Dose [Carcinogen]: 10 MG/KG BW 1/WK FOR 15 WK)	tumour outcome (control, treated, inhibition, significance) (Carcinogen: L-AZASERINE, 115-02-6, Dose [Inhibitor]: 1 MMOL/KG DIET DAILY FOR 84 D FOLLOWED BY 0.5 MMOL/KG DIET FOR 276 D STARTING 1 WK AFTER COMPLETION OF CARCINOGEN TREATM, Route [Inhibitor]: ORAL, Strain/Sex: WISTAR-LEWIS/MALE, Target Tissue: Type of Lesion: PANCREAS: CARCINOMA, Dose [Carcinogen]: 10 MG/KG BW 1/WK FOR 15 WK)	tumour outcome (control, treated, inhibition, significance) (Carcinogen: L-AZASERINE, 115-02-6, Dose [Inhibitor]: 1 MMOL/KG DIET DAILY FOR 84 D FOLLOWED BY 0.5 MMOL/KG DIET FOR 276 D STARTING 1 WK AFTER COMPLETION OF CARCINOGEN TREATM, Route [Inhibitor]: ORAL, Strain/Sex: WISTAR-LEWIS/MALE, Target Tissue: Type of Lesion: PANCREAS: NEOPLASM, Dose [Carcinogen]: 10 MG/KG BW 1/WK FOR 15 WK)	tumour outcome (control, treated, inhibition, significance) (Carcinogen: L-AZASERINE, 115-02-6, Dose [Inhibitor]: 2 MMOL/KG DIET FOR 44 D, 1.5 MMOL FOR 26 D, 1 MMOL FOR 56 D AND 0.75 MMOL FOR 192 D STARTING 1 WK AFTER COMPLETION OF CA, Route [Inhibitor]: ORAL, Strain/Sex: WISTAR-LEWIS/FEMALE, Target Tissue: Type of Lesion: PANCREAS: ADENOMA, Dose [Carcinogen]: 10 MG/KG BW 1/WK FOR 15 WK)	tumour outcome (control, treated, inhibition, significance) (Carcinogen: L-AZASERINE, 115-02-6, Dose [Inhibitor]: 2 MMOL/KG DIET FOR 44 D, 1.5 MMOL FOR 26 D, 1 MMOL FOR 56 D AND 0.75 MMOL FOR 192 D STARTING 1 WK AFTER COMPLETION OF CA, Route [Inhibitor]: ORAL, Strain/Sex: WISTAR-LEWIS/FEMALE, Target Tissue: Type of Lesion: PANCREAS: CARCINOMA IN SITU, Dose [Carcinogen]: 10 MG/KG BW 1/WK FOR 15 WK)	tumour outcome (control, treated, inhibition, significance) (Carcinogen: L-AZASERINE, 115-02-6, Dose [Inhibitor]: 2 MMOL/KG DIET FOR 44 D, 1.5 MMOL FOR 26 D, 1 MMOL FOR 56 D AND 0.75 MMOL FOR 192 D STARTING 1 WK AFTER COMPLETION OF CA, Route [Inhibitor]: ORAL, Strain/Sex: WISTAR-LEWIS/FEMALE, Target Tissue: Type of Lesion: PANCREAS: CARCINOMA, Dose [Carcinogen]: 10 MG/KG BW 1/WK FOR 15 WK)	tumour outcome (control, treated, inhibition, significance) (Carcinogen: L-AZASERINE, 115-02-6, Dose [Inhibitor]: 2 MMOL/KG DIET FOR 44 D, 1.5 MMOL FOR 26 D, 1 MMOL FOR 56 D AND 0.75 MMOL FOR 192 D STARTING 1 WK AFTER COMPLETION OF CA, Route [Inhibitor]: ORAL, Strain/Sex: WISTAR-LEWIS/FEMALE, Target Tissue: Type of Lesion: PANCREAS: NEOPLASM, Dose [Carcinogen]: 10 MG/KG BW 1/WK FOR 15 WK)	tumour outcome (control, treated, inhibition, significance) (Carcinogen: L-AZASERINE, 115-02-6, Dose [Inhibitor]: 2 MMOL/KG DIET FOR 44 D, 1.5 MMOL FOR 26 D, 1 MMOL FOR 56 D AND 0.75 MMOL FOR 192 D STARTING 1 WK AFTER COMPLETION OF CA, Route [Inhibitor]: ORAL, Strain/Sex: WISTAR-LEWIS/MALE, Target Tissue: Type of Lesion: PANCREAS: ADENOMA, Dose [Carcinogen]: 10 MG/KG BW 1/WK FOR 15 WK)	tumour outcome (control, treated, inhibition, significance) (Carcinogen: L-AZASERINE, 115-02-6, Dose [Inhibitor]: 2 MMOL/KG DIET FOR 44 D, 1.5 MMOL FOR 26 D, 1 MMOL FOR 56 D AND 0.75 MMOL FOR 192 D STARTING 1 WK AFTER COMPLETION OF CA, Route [Inhibitor]: ORAL, Strain/Sex: WISTAR-LEWIS/MALE, Target Tissue: Type of Lesion: PANCREAS: CARCINOMA IN SITU, Dose [Carcinogen]: 10 MG/KG BW 1/WK FOR 15 WK)	tumour outcome (control, treated, inhibition, significance) (Carcinogen: L-AZASERINE, 115-02-6, Dose [Inhibitor]: 2 MMOL/KG DIET FOR 44 D, 1.5 MMOL FOR 26 D, 1 MMOL FOR 56 D AND 0.75 MMOL FOR 192 D STARTING 1 WK AFTER COMPLETION OF CA, Route [Inhibitor]: ORAL, Strain/Sex: WISTAR-LEWIS/MALE, Target Tissue: Type of Lesion: PANCREAS: CARCINOMA, Dose [Carcinogen]: 10 MG/KG BW 1/WK FOR 15 WK)	tumour outcome (control, treated, inhibition, significance) (Carcinogen: L-AZASERINE, 115-02-6, Dose [Inhibitor]: 2 MMOL/KG DIET FOR 44 D, 1.5 MMOL FOR 26 D, 1 MMOL FOR 56 D AND 0.75 MMOL FOR 192 D STARTING 1 WK AFTER COMPLETION OF CA, Route [Inhibitor]: ORAL, Strain/Sex: WISTAR-LEWIS/MALE, Target Tissue: Type of Lesion: PANCREAS: NEOPLASM, Dose [Carcinogen]: 10 MG/KG BW 1/WK FOR 15 WK)	tumour outcome (control, treated, inhibition, significance) (Carcinogen: 7,12-DIMETHYLBENZ[A]ANTHRACENE, 57-97-6, Dose [Inhibitor]: 0.1 MMOL IN 1 ML DIMETHYL SULFOXIDE ONCE 20 HR PRIOR TO CARCINOGEN ADMINISTRATION FOLLOWED BY A 14 WK OBSERVATION PERIOD, Route [Inhibitor]: GAVAGE, Strain/Sex: SPRAGUE-DAWLEY/FEMALE, Target Tissue: Type of Lesion: MAMMARY GLAND: TUMOR, Dose [Carcinogen]: 12 MG IN 1 ML OLIVE OIL ONCE)
CCC(=O)Oc1ccc(NC(=O)\C=C(C)/C=C/C=C(C)/C=C/C2=C(C)CCCC2(C)C)cc1	50%, 17%, 66%, not significant	8%, 21%, -163%, not calculated	13%, 0%, 100%, not significant	71%, 38%, 46%, p<0.05	25%, 29%, -16%, not significant	29%, 42%, -45%, not significant	46%, 21%, 54%, p 0.06	100%, 92%, 8%, not significant	50%, 29%, 42%, not significant	8%, 4%, 50%, not significant	13%, 4%, 70%, not significant	71%, 38%, 46%, p<0.05	25%, 22%, 12%, not significant	29%, 43%, -48%, not significant	46%, 13%, 72%, p<0.05	100%, 78%, 22%, not significant	–
O/N=C/Cc1c[nH]c2ccccc12	–	–	–	–	–	–	–	–	–	–	–	–	–	–	–	–	64%, 19%, 70%, p<0.05
